Square brackets hold non-standard residues; d marks the D form. Peptide text beside a SMILES is read from it. * marks the point of attachment. X1 = CC(=O)N[C@@H]1[C@@H](O[C@@H]2O[C@H](CO)[C@H](O)[C@H](O)[C@H]2O)[C@@H](O)[C@@H](CO[C@@H]2O[C@H](CO)[C@@H](O[C@@H]3O[C@H](CO)[C@H](O)[C@H](O[C@]4(C(=O)O)C[C@H](O)[C@@H](NC(C)=O)[C@H]([C@H](O)[C@H](O)CO)O4)[C@H]3O)[C@H](O[C@@H]3O[C@@H](C)[C@@H](O)[C@@H](O)[C@@H]3O)[C@H]2NC(C)=O)O[C@@H]1*; Phe(4-CH2SO3H) = N[C@@H](Cc1ccc(CS(=O)(=O)O)cc1)C(=O)O; Mca = COc1ccc2c(CC(=O)*)cc(=O)oc2c1
Columns and labels:
[1] = biological target: T1, human P-selectin (Homo sapiens, UniProt P16109); assay: Biacore binding assay, human P-selectin
T1 sequence (P16109 42-830): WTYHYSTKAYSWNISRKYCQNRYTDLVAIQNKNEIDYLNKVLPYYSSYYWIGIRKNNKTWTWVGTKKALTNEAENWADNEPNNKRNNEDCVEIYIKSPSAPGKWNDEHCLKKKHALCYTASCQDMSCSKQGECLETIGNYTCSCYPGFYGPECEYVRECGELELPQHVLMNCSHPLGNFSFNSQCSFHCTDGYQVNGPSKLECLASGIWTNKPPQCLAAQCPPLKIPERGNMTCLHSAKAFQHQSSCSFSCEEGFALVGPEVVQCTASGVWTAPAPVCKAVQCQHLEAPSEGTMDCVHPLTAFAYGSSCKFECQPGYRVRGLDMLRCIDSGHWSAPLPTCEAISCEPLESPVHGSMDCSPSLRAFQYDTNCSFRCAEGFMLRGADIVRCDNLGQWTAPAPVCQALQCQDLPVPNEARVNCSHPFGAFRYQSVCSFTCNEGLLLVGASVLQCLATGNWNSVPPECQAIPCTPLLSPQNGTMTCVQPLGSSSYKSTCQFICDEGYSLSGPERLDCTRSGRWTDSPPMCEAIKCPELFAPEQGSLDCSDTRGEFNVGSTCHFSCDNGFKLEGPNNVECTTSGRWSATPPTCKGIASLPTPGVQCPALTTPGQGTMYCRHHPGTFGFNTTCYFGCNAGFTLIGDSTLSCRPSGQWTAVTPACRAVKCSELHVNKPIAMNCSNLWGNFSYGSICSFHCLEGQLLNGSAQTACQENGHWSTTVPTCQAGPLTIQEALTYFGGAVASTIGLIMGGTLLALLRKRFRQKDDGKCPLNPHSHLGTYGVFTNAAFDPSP
Description: (§1) Bound peptides were detected using Alexa-488 labeled anti-human IgG antibody (5 μg/mL). Three lectins RCA-1, AAL, and PNA were used to confirm the sequence of enzymatic steps. Monoclonal antibodies CHO131, PSG2 antibody and PL-1 were used to confirm the presence of SLex, tyrosine sulfates, and the peptide sequence, respectively. Biacore binding analysis to human P-selectin with observed rate constants for (D) GSnP-6, kon 3.1×10^5 M^−1s^−1, koff 6.9×10^3 M^−1s^−; GSn2P-6, kon6.4×10^5 M^−1s^−1, koff 6.8×10^3 M^−1s. Biacore binding analysis to mouse P-selectin with observed rate constants for (E) GsnP-6, kon 4.9×10^4 M^−1s^−1, koff 8.0×10^3 M^−1s^−; GSn2P-6 kon 5.3×10^4 M^−1s^−1, koff 9.0×10^3 M^−1s. (F) Temperature- and pH-dependent stability studies of GSnP-6.
(§2) Dissociation constants (Kd) were determined using a Biacore binding assay after initial capture of biotinylated GS(n)P-6 onto streptavidin-coated sensor chips followed by flow through of P-, L- or E-sel-Ig (2.5 to 60 μg/mL). […] The Kd of GSnP-6 to murine P-selectin was ˜9-fold lower than to human P-selectin.

[2] = biological target: T2, E-selectin (E-sel-Ig) (Homo sapiens, UniProt P16581); assay: Biacore binding assay, E-selectin; details: compared with P-selectin
T2 sequence (P16581 22-610): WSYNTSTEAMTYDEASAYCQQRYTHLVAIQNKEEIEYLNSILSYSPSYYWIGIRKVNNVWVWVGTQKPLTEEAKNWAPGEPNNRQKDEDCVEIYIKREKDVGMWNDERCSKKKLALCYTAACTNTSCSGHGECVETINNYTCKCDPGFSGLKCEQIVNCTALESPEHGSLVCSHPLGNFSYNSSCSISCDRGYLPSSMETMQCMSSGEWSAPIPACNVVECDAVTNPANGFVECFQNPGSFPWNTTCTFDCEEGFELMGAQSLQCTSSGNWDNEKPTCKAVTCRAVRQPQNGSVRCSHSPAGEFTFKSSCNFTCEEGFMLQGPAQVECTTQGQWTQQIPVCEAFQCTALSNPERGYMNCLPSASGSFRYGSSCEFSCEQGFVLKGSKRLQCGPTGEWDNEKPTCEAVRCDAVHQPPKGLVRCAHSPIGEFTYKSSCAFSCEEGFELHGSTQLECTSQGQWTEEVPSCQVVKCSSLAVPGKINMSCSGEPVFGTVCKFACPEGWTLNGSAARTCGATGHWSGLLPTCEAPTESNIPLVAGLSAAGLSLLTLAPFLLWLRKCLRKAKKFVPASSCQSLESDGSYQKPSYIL
Description: as §2

[3] = Chemical stability at low pH and at high temperature (RP-HPLC); type: physicochemical; details: sodium acetate/acetic acid buffer pH 5, 37° C.; and 2 mM phosphate buffer pH 7.5, 60° C.
Description: as §1
The chemical stability of GSnP-6 was evaluated under low pH conditions by incubating the compound in sodium acetate/acetic acid buffer at pH 5, 37° C., as well as under high temperature conditions by incubation in 2 mM phosphate buffer at pH 7.5, 60° C. (FIG. 3E).

[4] = system: leukocyte binding to microvascular endothelium; assay: Intravital microscopy of murine cremaster muscle microcirculation, leukocyte rolling; type: in vivo; details: mouse cremaster venules 30 to 40 μm, 4 μmol/kg IV, saline 40.8±1.7, p≤0.01
Description: Intravital microscopy was used to determine the ability of GsnP-6 to inhibit leukocyte binding to microvascular endothelium. PSGL-1 expressed on circulating leukocytes binds to selectins on endothelium; inducing leukocyte rolling to facilitate subsequent tight binding to integrin receptors. Inhibition of this interaction leads to an increase in rolling velocity. Intravital microscopy of the murine cremaster muscle microcirculation was performed on venules with a diameter of 30 to 40 μm. Seven venules per mouse (n=4, saline (control); n=3, GSnP-6, 4 μmol/kg IV) were analyzed and the velocities of 5 to 10 rolling leukocytes were determined in each venule by individually tracking leukocyte distance/time (μm/s). A significant increase in mean rolling velocity was observed after intravenous administration of GSnP-6 (FIG. GsnP-6: 74.9±3.4 μm/s, saline: 40.8±1.7 μm/s; p≤0.01).

COc1ccc2c(CC(=O)NCCCC[C@H](N)C(=O)N[C@@H](CCC(=O)O)C(=O)N[C@@H](Cc3ccc(CS(=O)(=O)O)cc3)C(=O)N[C@@H](CCC(=O)O)C(=O)N[C@@H](Cc3ccc(CS(=O)(=O)O)cc3)C(=O)N[C@@H](CC(C)C)C(=O)N[C@@H](CC(=O)O)C(=O)N[C@@H](Cc3ccc(CS(=O)(=O)O)cc3)C(=O)N[C@@H](CC(=O)O)C(=O)N[C@@H](Cc3ccccc3)C(=O)N[C@@H](CC(C)C)C(=O)N3CCC[C@H]3C(=O)N[C@@H](CCC(=O)O)C(=O)N[C@H](C(=O)N[C@@H](CCC(=O)O)C(=O)N3CCC[C@H]3C(=O)N[C@@H](CC(C)C)C(=O)O)[C@@H](C)O[C@H]3O[C@H](CO[C@@H]4O[C@H](CO)[C@@H](O[C@@H]5O[C@H](CO)[C@H](O)[C@H](O[C@]6(C(=O)O)C[C@H](O)[C@@H](NC(C)=O)[C@H]([C@H](O)[C@H](O)CO)O6)[C@H]5O)[C@H](O[C@@H]5O[C@@H](C)[C@@H](O)[C@@H](O)[C@@H]5O)[C@H]4NC(C)=O)[C@H](O)[C@H](O[C@@H]4O[C@H](CO)[C@H](O)[C@H](O)[C@H]4O)[C@H]3NC(C)=O)cc(=O)oc2c1 [GSnP-6] (H-K(Mca)E[Phe(4-CH2SO3H)]E[Phe(4-CH2SO3H)]LD[Phe(4-CH2SO3H)]DFLPET(X1)EPL-OH)
koff ([1]; Biacore observed rate constant): 0.0069 s⁻¹
kon ([1]; Biacore observed rate constant): 310000 M⁻¹ s⁻¹
Kd ([1]; biotinylated GS(n)P-6 captured on streptavidin chip, P-sel-Ig 2.5 to 60 μg/mL, read-out: Dissociation constant (Kd) to human P-selectin): 22 nM
apparent affinity to E-selectin [2]: even lower apparent affinity
chemical stability (degraded products by RP-HPLC) [3]: degraded products were not detected
mean leukocyte rolling velocity [4]: increased leukocyte rolling velocity
mean leukocyte rolling velocity ([4]; listed as GsnP-6): 74.9±3.4 μm/s

Source: patent publication US10253071B2, “Selectin inhibitors, composition, and uses related thereto” (Beth Israel Deaconess Medical Center, Inc., priority 2014, dated 2019)
